Results as given in patent US20260275280A1, “DIRECTED DIFFERENTIATION PROTOCOLS TO DERIVE BONE FIDE SPINAL SENSORY INTERNEURONS” (THE REGENTS OF THE UNIVERSITY OF CALIFORNIA, priority 2022, published 2026).
“And” between values parts separate entries of the source, which are not always exact repeats. Identical values can stand only once. “Also recorded” adds a separate entry of the source.

Columns and labels:
[1] = tested on: dorsal NPCs in mESC-derived EBs; experiment: Embryoid body proliferation assay (EdU incorporation, pH3) with CHIR; assay type: cell-based, mouse
Description: Embryoid body (EB) culture. and expansion: To initiate EB formation, dissociated embryonic stem cells were seeded in low attachment plates (Corning) at 10^5 cells/ml density in N2/B27 medium supplemented with 10 ng/ml bFGF. To induce posterior spinal cord and dorsal spinal patterning, RA and RA+BMP4 were added using the same timeline as described for the 2D differentiation, and the media was changed at every other day after day 5.
For EBs, EBs were collected and fixed with fresh 4% PFA for 20 minutes at 4° C. EBs were then equilibrated with 30% sucrose for overnight at 4C and embedded into the OCT compound for cryo-sectioning. 12 um sections were collected onto positive charged slides (VVVR), incubated with the antibody blocking solution for 1 hr, and then stained as above.
Image quantification: To count the number of nuclei, images were converted to 8 bit image in ImageJ, their threshold intensity was adjusted to capture only the florescent nuclei, and the number of nuclei counted using the analyze particle tool in ImageJ. For each image, the area under the DAPI staining was determined using ImageJ and target cells were represented as % of cells in 100 μm^2 DAPI^+ area.
We then asked whether activating Wnt signaling in mESC-derived NMPs affected their mitotic index. To better visualize proliferation, mESCs were permitted to assemble into three dimensional EBs (Andrews et al., 2017; Duval et al., 2019; Gupta et al., 2018), and then treated with RA±BMP4 over the same timeline as protocol 1 and 3 (FIG. 1B) to induce dorsal spinal cord patterning. EBs were then cultured with either DMSO or CHIR from day 5 to day 9 (FIG. 6C), when the cultures were pulsed with 5-Ethynyl-2′-deoxyuridine (EdU) to label cells in S-phase of the cell cycle. Strikingly, there was a ~3-fold increase in EdU+cells in CHIR-treated EBs (FIG. 6E, 6G, 6H) compared to DMSO control (FIG. 6D, 6F, 6H) in both protocols. […] Many of the dividing cells in the CHIR-treated cultures were Sox2+NPCs (FIG. 6E, 6G), while NPCs are largely depleted by day 9 in control cultures (FIG. 6D, 6F). Thus, extending the window of Wnt signaling appears to prolong NPC proliferation.

mESC-derived neurons = experiment: Single-cell RNA sequencing of day 9 cultures, assignment of dI identities; assay type: cell-based, mouse; settings: scRNA-Seq
Description: Preparation of single cell suspension: Day 9 cultures from both protocol1 (RA) and protocol3 (RA+BMP4) were dissociated with 0.25% cold trypsin for 5 mins. Trypsin activity was stopped with the addition of trypsin inhibitor (Sigma-Aldrich) in 1:1 ratio. Cells were then pelleted by centrifugation at 1000RPM and resuspended in 1× PBS. The ratio of viable cells was determined using Trypan blue staining. Dead cells were removed using MACS dead cell removal kit (Miltenyi Biotec Inc.) by following the manufacturer's protocol. Eluted live cells were then suspended in 1× PBS containing 0.04% BSA solution (400 μg/ml) for the library preparation.
Library preparation, and sequencing: ~10,000 live cells/conditions were used to construct single-cell specific cDNA libraries using protocol described in 10× Genomics chromium single cell 3′ reagent kit (v3.1 Chemistry). Briefly, cells were partitioned into nanoliter-scale Gel-Beads-in-emulsion (GEM) using the 10× Chromium controller. Each GEM contains a unique barcode which is shared among the cDNA generated from a single cell. Cells were then lysed, and cDNA synthesis and feature barcoding were performed in the GEMs. The sequencing libraries were recovered using Magnetic separation and the quantity and quality of cDNA were assessed by Agilent 2100 expert High Sensitivity DNA Assay. cDNA samples were sequenced on 1 lane of NovaSeq 6000 S2 flow cell and reads were mapped to mouse mm10 genome using Cell Ranger v.3.0.2 to generate fasq files.
Filtering genes and cells: Seurat package v3.1.1 was used for the analysis. For each condition, genes expressing in less than 3 cells were removed and cells with >250 features were retained. PCA was used for dimension reduction (npcs=50) with top 3000 most variable genes. Raw count data were normalized using regularized negative binomial regression with SCT transformation. Cell clustering is done using Shared Nearest Neighbor (SNN) Graph method and cluster specific markers were identified by Wilcox Rank Sum test.
Each cell cluster was annotated by a combination of the following methods 1) the expression of known canonical cell-type markers 2) Gene Set Enrichment Analysis (GSEA) of cluster specific markers determined by FindMarkers function in Seurat.
Reclustering of neuronal clusters: From the entire single-cell dataset, neuronal cells were first identified by the expression of pan-neuronal markers-Tubb3 and Elavl1/2. Roughly 30% cells express these markers in both protocol 1 and protocol 3 and were thus annotated as the mature neurons. The neuronal populations were then extracted using the Seurat package in R, by clustering the cells expressing Tubb3 >2 (median normalized log expression levels) using the Shared Nearest Neighbor (SNN) Graph method. […] Clusters were visualized with Uniform Manifold Approximation Projection (UMAP) method and the unique cluster-specific markers were identified using FindMarker function in Seurat.
To assess whether protocols 1 and 3 direct distinct classes of dIs, we obtained single-cell transcriptomes from 9,704 cells using protocol 1 and 13,121 cells using protocol 3, taken at day 9 of the differentiation procedure (FIG. 2A). We performed Louvain clustering followed by Uniform Manifold Approximation and Projection (UMAP) plots, to visualize groups of transcriptionally distinct cell types (Becht et al., 2018). This pipeline identified 21 dusters of cells in both protocol 1 (FIG. 2C) and protocol 3 (FIG. 2D). In both conditions, ~30% of cells identify as being stressed; they cluster separately and display <2000 RNA counts (FIGS. 2C, 2D, 9A, 9B). ~2-4% cells are pluripotent stem cells, marked by Sox2, Pou5f1 (Oct4) and Nanog expression, while 5-8% cells are non-neural, either of mesodermal or cardiac neural crest identity, expressing Twist1, Runx2, and Hand2 (Han et al., 2021; Soldatov et al., 2019; Vincentz et al., 2013) (FIGS. 2C, 2D, 9A, 9B). […]

[2] = RA±BMP4 patterned EBs, CHIR day 5 to day 9

SMILES	increase in EdU+ cells compared to DMSO control [1, 2]	increase in the number of pHistone H3 (pH3)+ cells compared to control [1, 2]	increase in cell proliferation (EdU+ and pH3+ cells) compared to DMSO ([1]; RA±BMP4 patterned EBs, n=15-25 EBs)	identity of CHIR-treated NPCs (Pax3, Pax7, Olig3) ([1]; protocol 1 and protocol 3 EBs, day 9)	Tubb3+ (Tuj1+) neurons of unknown neural identity (no dI specific markers) (mESC-derived neurons)	Tubb3+ (Tuj1+) neurons that are dI1 (mESC-derived neurons)	Tubb3+ (Tuj1+) neurons that are dI2 (mESC-derived neurons)	Tubb3+ (Tuj1+) neurons that are dI4 (mESC-derived neurons)	Tubb3+ (Tuj1+) neurons that are dI5 (mESC-derived neurons)	Tubb3+ (Tuj1+) neurons that are dI6 (mESC-derived neurons)
Cc1c[nH]c(-c2cnc(NCCNc3ccc(C#N)cn3)nc2-c2ccc(Cl)cc2Cl)n1 [CHIR, CHIR99021]	~ 3 fold	2-4 fold	~ 3 fold	retained their original identity; also recorded: does not significantly (unpaired t-test) alter their dorsal-ventral identities	–	–	–	–	–	–
CC1=C(/C=C/C(C)=C/C=C/C(C)=C/C(=O)O)C(C)(C)CCC1 [RA, retinoic acid]	–	–	–	–	8.5% and ~ 8.5%	5% and 5.2%	5%	~ 33% and 33%	40.5% and 40.6%	8% and 7.6%
